Measured values reported in ChEMBL document CHEMBL5252647 (Bioorg Med Chem, 2023).

Legend:
A549 = assay: Antiproliferative activity against human A549 cells assessed as inhibition of cell growth incubated for 72 hrs by MTT assay; assay type: functional, cell-based; conditions: A549, 72 h
MDA-MB-231 [1] = assay: Induction of apoptosis in human MDA-MB-231 cells assessed as necrotic cells at 10 uM incubated for 24 hrs by annexin V-FITC/propidium iodide staining based flow cytometry analysis (reference value: 0.034%); assay type: functional
[2] = molecular target: Cyclin-dependent kinase 4 (Homo sapiens, UniProt P11802); assay: Covalent inhibition of CDK4 (unknown origin) using histone H1 as substrate incubated for 10 mins in presence of [gamma-32P]ATP by radioactivity based kinase assay
MDA-MB-231 [3] = assay: Induction of apoptosis in human MDA-MB-231 cells assessed as apoptosis rate at 10 uM incubated for 24 hrs by annexin V-FITC/propidium iodide staining based flow cytometry analysis; assay type: functional
MDA-MB-231 [4] = assay: Cell cycle arrest in human MDA-MB-231 cells assessed as accumulation of cells at S phase at 10 uM incubated for 24 hrs by propidium iodide staining based assay (reference value: 25.09%); assay type: functional
[5] = molecular target: Cyclin-dependent kinase 9 (Homo sapiens, UniProt P50750); assay: Covalent inhibition of CDK9 (unknown origin) using histone H1 as substrate incubated for 10 mins in presence of [gamma-32P]ATP by radioactivity based kinase assay
MCF7 [6] = assay: Antiproliferative activity against human MCF7 cells assessed as inhibition of cell growth incubated for 72 hrs by MTT assay; assay type: functional, cell-based; conditions: MCF7, 72 h
[7] = Resistance factor, ratio of IC50 for palbociclib-resistant human MCF7 cells to IC50 for human MCF7 cells; assay type: functional
[8] = molecular target: Cyclin-dependent kinase 6 (Homo sapiens, UniProt Q00534); assay: Covalent inhibition of CDK6 (unknown origin) using histone H1 as substrate incubated for 10 mins in presence of [gamma-32P]ATP by radioactivity based kinase assay
[9] = molecular target: T1, Cyclin-dependent kinase 4/6 (Homo sapiens) (UniProt P11802+Q00534); assay: Inhibition of CDK4/CDK6 signaling pathway in human MDA-MB-231 cells assessed as reduction of RB phosphorylation at Ser780 residue level at 1 to 8 uM incubated for 24 hrs by western blot assay; assay type: cell-based; conditions: dose 1-8 µM
[10] = molecular target: Cyclin-dependent kinase 12 (Homo sapiens, UniProt Q9NYV4); assay: Covalent inhibition of CDK12 (unknown origin) using histone H1 as substrate incubated for 10 mins in presence of [gamma-32P]ATP by radioactivity based kinase assay
MDA-MB-231 [11] = assay: Induction of apoptosis in human MDA-MB-231 cells assessed as late apoptotic cells at 10 uM incubated for 24 hrs by annexin V-FITC/propidium iodide staining based flow cytometry analysis (reference value: 0.113%); assay type: functional
MDA-MB-231 [12] = assay: Cell cycle arrest in human MDA-MB-231 cells assessed as accumulation of cells at G0/G1 phase at 10 uM incubated for 24 hrs by propidium iodide staining based assay (reference value: 54.43%); assay type: functional
HepG2 = assay: Antiproliferative activity against human HepG2 cells assessed as inhibition of cell growth incubated for 72 hrs by MTT assay; assay type: functional, cell-based; conditions: HepG2, 72 h
[13] = molecular target: T1, Cyclin-dependent kinase 4/6 (Homo sapiens); assay: Inhibition of CDK4/CDK6 signaling pathway in human MDA-MB-231 cells assessed as inhibition of CDK4 expression level at 1 to 8 uM incubated for 24 hrs by western blot assay; assay type: cell-based; conditions: dose 1-8 µM
MDA-MB-231 [14] = assay: Induction of apoptosis in human MDA-MB-231 cells assessed as viable cells at 10 uM incubated for 24 hrs by annexin V-FITC/propidium iodide staining based flow cytometry analysis (reference value: 96.5%); assay type: functional; conditions: read-out: Activity
MDA-MB-231 [15] = assay: Cell cycle arrest in human MDA-MB-231 cells assessed as accumulation of cells at G2/M phase at 10 uM incubated for 24 hrs by propidium iodide staining based assay (reference value: 20.49%); assay type: functional
MDA-MB-231 [16] = assay: Antiproliferative activity against human MDA-MB-231 cells assessed as inhibition of cell growth incubated for 72 hrs by MTT assay; assay type: functional, cell-based; conditions: MDA-MB-231, 72 h
MCF7 [17] = assay: Antiproliferative activity against palbociclib-resistant human MCF7 cells assessed as inhibition of cell growth incubated for 72 hrs by MTT assay; assay type: functional, cell-based; conditions: MCF7, 72 h
MDA-MB-231 [18] = assay: Induction of apoptosis in human MDA-MB-231 cells assessed as early apoptotic cells at 10 uM incubated for 24 hrs by annexin V-FITC/propidium iodide staining based flow cytometry analysis (reference value: 3.39%); assay type: functional
[19] = molecular target: T1, Cyclin-dependent kinase 4/6 (Homo sapiens); assay: Inhibition of CDK4/CDK6 signaling pathway in human MDA-MB-231 cells assessed as inhibition of CDK6 expression level at 1 to 8 uM incubated for 24 hrs by western blot assay; assay type: cell-based; conditions: dose 1-8 µM

T1 sequence (P11802 whole entry, looked up): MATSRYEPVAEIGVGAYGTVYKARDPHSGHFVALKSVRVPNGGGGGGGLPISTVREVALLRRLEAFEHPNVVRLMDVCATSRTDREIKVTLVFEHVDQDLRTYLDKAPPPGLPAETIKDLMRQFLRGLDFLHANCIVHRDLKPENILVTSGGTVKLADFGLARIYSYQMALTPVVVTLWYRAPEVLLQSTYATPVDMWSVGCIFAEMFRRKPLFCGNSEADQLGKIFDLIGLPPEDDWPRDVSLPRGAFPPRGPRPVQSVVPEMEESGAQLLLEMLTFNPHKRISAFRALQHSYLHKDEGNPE
T1 sequence (Q00534 whole entry, looked up): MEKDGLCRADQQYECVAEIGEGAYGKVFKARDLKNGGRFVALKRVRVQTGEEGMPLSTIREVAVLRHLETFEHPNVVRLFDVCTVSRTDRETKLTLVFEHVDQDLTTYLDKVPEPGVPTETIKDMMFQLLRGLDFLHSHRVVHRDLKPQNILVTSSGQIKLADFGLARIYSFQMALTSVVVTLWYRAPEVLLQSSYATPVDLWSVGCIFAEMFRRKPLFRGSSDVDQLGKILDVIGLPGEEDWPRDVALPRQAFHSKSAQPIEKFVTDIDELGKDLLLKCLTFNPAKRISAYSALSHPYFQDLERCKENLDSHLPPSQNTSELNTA
Cyclin-dependent kinase 4, sequence (P11802 whole entry): as the sequence (P11802 whole entry, looked up) above
Cyclin-dependent kinase 12, sequence (Q9NYV4 whole entry): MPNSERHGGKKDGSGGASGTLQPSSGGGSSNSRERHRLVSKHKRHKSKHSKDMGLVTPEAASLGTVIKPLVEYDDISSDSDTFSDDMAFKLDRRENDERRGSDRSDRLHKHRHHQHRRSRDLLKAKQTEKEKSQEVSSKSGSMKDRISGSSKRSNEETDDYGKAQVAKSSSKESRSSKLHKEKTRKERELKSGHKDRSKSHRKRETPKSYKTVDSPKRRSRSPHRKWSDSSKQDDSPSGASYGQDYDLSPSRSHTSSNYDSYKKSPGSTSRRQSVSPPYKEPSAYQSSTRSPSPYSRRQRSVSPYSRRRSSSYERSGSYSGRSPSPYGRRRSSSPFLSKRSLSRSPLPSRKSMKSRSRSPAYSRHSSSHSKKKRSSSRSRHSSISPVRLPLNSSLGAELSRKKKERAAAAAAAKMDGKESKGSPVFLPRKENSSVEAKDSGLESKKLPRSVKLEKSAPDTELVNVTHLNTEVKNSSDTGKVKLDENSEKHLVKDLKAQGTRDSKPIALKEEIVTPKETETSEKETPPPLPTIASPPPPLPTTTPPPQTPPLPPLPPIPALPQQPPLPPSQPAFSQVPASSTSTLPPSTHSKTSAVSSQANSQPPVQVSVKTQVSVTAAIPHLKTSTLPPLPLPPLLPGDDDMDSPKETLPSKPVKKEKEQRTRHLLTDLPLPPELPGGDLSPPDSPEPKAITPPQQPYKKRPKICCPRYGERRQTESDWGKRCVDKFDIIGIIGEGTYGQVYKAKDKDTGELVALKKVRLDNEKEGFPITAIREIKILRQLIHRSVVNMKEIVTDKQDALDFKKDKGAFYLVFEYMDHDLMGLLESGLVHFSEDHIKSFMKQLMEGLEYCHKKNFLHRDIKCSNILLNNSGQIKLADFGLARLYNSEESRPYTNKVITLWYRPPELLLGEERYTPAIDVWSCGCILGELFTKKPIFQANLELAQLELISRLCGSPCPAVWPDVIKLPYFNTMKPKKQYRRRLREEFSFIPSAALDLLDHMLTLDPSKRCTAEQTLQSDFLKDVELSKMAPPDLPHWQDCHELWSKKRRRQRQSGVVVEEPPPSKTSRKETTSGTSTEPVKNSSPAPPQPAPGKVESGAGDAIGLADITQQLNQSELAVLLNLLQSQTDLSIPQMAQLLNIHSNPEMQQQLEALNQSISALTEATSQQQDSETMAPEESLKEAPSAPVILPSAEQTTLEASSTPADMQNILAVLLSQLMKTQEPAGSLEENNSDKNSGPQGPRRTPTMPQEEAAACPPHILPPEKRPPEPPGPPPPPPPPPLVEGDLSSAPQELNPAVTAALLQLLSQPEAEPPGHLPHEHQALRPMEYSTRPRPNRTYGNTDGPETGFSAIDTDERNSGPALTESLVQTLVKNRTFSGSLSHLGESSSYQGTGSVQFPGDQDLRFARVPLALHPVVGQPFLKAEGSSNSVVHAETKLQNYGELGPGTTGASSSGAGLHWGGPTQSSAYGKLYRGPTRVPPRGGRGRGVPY
Cyclin-dependent kinase 6, sequence (Q00534 whole entry): as the sequence (Q00534 whole entry, looked up) above
Cyclin-dependent kinase 9, sequence (P50750 whole entry): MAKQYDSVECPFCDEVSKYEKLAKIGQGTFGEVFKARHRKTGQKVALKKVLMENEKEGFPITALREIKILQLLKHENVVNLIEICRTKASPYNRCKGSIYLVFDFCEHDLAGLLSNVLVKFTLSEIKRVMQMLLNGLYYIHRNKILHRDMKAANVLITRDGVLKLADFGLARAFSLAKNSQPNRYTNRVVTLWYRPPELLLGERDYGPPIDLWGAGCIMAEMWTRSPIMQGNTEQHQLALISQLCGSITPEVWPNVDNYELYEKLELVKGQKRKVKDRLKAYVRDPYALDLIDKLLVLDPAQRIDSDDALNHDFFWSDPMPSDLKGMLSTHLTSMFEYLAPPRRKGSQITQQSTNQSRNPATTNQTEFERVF

Compound: CC(=O)c1c(C)c2cnc(Nc3ccc(N4CCN(C(=O)/C=C/C(F)(F)F)CC4)cn3)nc2n(C2CCCC2)c1=O
- IC50 (A549): 1.55 µM
- Activity (MDA-MB-231 [1]): 0.445%
- IC50 [2]: 0.018 µM
- Activity (MDA-MB-231 [3]): 79%
- Activity (MDA-MB-231 [4]): 21.16%
- IC50 [5]: > 1 µM
- IC50 (MCF7 [6]): 0.48 µM
- Ratio IC50 [7]: 1.1
- IC50 [8]: 0.013 µM
- inhibition [9]: Dose-Dependent Effect
- IC50 [10]: > 1 µM
- Activity (MDA-MB-231 [11]): 16.7%
- Activity (MDA-MB-231 [12]): 68.69%
- IC50 (HepG2): 5.1 µM
- inhibition [13]: Dose-Dependent Effect
- viability at 10 µM (MDA-MB-231 [14]): 20.6%
- Activity (MDA-MB-231 [15]): 10.14%
- IC50 (MDA-MB-231 [16]): 0.51 µM
- IC50 (MCF7 [17]): 0.53 µM
- Activity (MDA-MB-231 [18]): 62.3%
- inhibition [19]: Dose-Dependent Effect

Compound: CC(=O)c1c(C)c2cnc(Nc3ccc(N4CCN(C(=O)/C(C#N)=C/c5ccccc5)CC4)cn3)nc2n(C2CCCC2)c1=O
- IC50 (A549): 9.57 µM
- Activity (MDA-MB-231 [1]): 0.425%
- IC50 [2]: 0.025 µM
- Activity (MDA-MB-231 [3]): 63.1%
- Activity (MDA-MB-231 [4]): 24.58%
- IC50 [5]: > 1 µM
- IC50 (MCF7 [6]): 0.42 µM
- IC50 [8]: 0.019 µM
- IC50 [10]: > 1 µM
- Activity (MDA-MB-231 [11]): 11%
- Activity (MDA-MB-231 [12]): 63.83%
- IC50 (HepG2): 9.11 µM
- viability at 10 µM (MDA-MB-231 [14]): 36.5%
- Activity (MDA-MB-231 [15]): 11.59%
- IC50 (MDA-MB-231 [16]): 5.68 µM
- Activity (MDA-MB-231 [18]): 52.1%

Compound: COc1ccc(/C=C/C(=O)NCCCC(=O)N2CCN(c3ccc(Nc4ncc5c(C)c(C(C)=O)c(=O)n(C6CCCC6)c5n4)nc3)CC2)cc1O
- IC50 (A549): > 20 µM
- IC50 (MCF7 [6]): 2.69 µM
- IC50 (HepG2): > 20 µM
- IC50 (MDA-MB-231 [16]): 8.21 µM

Compound: COC(=O)/C=C/CN1CCN(c2ccc(Nc3ncc4c(C)c(C(C)=O)c(=O)n(C5CCCC5)c4n3)nc2)CC1
- IC50 (A549): 16.5 µM
- IC50 (MCF7 [6]): > 20 µM
- IC50 (HepG2): > 20 µM
- IC50 (MDA-MB-231 [16]): > 20 µM

Compound: COc1ccc(/C=C/C(=O)NCCCC(=O)N2CCN(c3ccc(Nc4ncc5c(C)c(C(C)=O)c(=O)n(C6CCCC6)c5n4)nc3)CC2)cc1OC
- IC50 (A549): 13 µM
- IC50 (MCF7 [6]): > 20 µM
- IC50 (HepG2): 13.7 µM
- IC50 (MDA-MB-231 [16]): > 20 µM

Compound: CC(=O)c1c(C)c2cnc(Nc3ccc(N4CCN(C(=O)/C=C/C5CC5)CC4)cn3)nc2n(C2CCCC2)c1=O
- IC50 (A549): 17.6 µM
- IC50 (MCF7 [6]): 1.32 µM
- IC50 (HepG2): > 20 µM
- IC50 (MDA-MB-231 [16]): 7.75 µM

Compound: COc1ccc(/C=C/C(=O)N2CCN(c3ccc(Nc4ncc5c(C)c(C(C)=O)c(=O)n(C6CCCC6)c5n4)nc3)CC2)cc1OC
- IC50 (A549): 16.1 µM
- IC50 (MCF7 [6]): 1.85 µM
- IC50 (HepG2): > 20 µM
- IC50 (MDA-MB-231 [16]): > 20 µM

Compound: COc1cc(/C=C/C(=O)NCC(=O)N2CCN(c3ccc(Nc4ncc5c(C)c(C(C)=O)c(=O)n(C6CCCC6)c5n4)nc3)CC2)ccc1O
- IC50 (A549): 12.1 µM
- IC50 (MCF7 [6]): > 20 µM
- IC50 (HepG2): 10.6 µM
- IC50 (MDA-MB-231 [16]): 6.29 µM
